# Measurements from PubChem BioAssay AID1963982 (Molecular Pharmacology Branch, DTP, NCI, 2024).
# Tested on: 313798-341-R-J2-PDC spheroids, viability
# Experiment: Anticancer human tumor 313798-341-R-J2-PDC patient-derived cervical squamous cell carcinoma cell line growth inhibition [PI3K]
# Conditions: spheroids with HUVEC and MSC; for IC50: curve of first compound; for viability, T/C: stronger effect = lower value
# Source text: Combinatorial screen of targeted agents with the PI3K inhibitors inavolisib, alpelisib, duvelisib, and copanlisib in multi-cell type tumor spheroids
# A high-throughput screen of multi-cell type tumor spheroids was designed to identify active combinations of targeted small molecules and PI3K pathway inhibitors. Complex spheroids include a stromal component modeled by human endothelial cells (HUVEC) and fibroblasts modeled by human mesenchymal stem cells (MSCs). The concentration ranges selected for each drug and investigational agent were based upon clinically achievable concentrations if the clinical Cmax of the agent was known.
# Compounds. The drugs and investigational agents: inavolisib (NSC800729), alpelisib (NSC765974), duvelisib (NSC772469), copanlisib (NSC816437), ipatasertib (NSC767898), afuresertib (NSC778305), talazoparib (NSC767125), sapanisertib (NSC764658), selumetinib (NSC741078), tovorafenib (DAY101, NSC766906), vemurafenib (NSC761431), ravoxertinib (NSC781343), sotorasib (NSC818433), MRTX1133 (NSC 836407), abemaciclib (NSC 768073), palbociclib (NSC758247), venetoclax (NSC 766270), SY5609 (NSC837396), enzalutamide (NSC755605), and darolutamide (NSC825331), were obtained from the National Cancer Institute (NCI) Developmental Therapeutics Program Chemical Repository. The FDA-approved anticancer drug set is available from the NCI Developmental Therapeutics Program. […] The stock solutions were prepared in dimethyl sulfoxide (DMSO, Sigma-Aldrich, St. Louis, MO, cat. D2650) at 800-fold the tested concentration and stored at -70 degrees C prior to their use. All drugs and investigational agents were tested over a range starting from a high concentration at or near the clinical Cmax and decreasing in half-log increments. If the clinical Cmax for an agent had not been determined, the highest concentration tested was 10 microM.
# Cell Culture. All cells were maintained in an incubator at 37 degrees C and 5% CO2 with 95% humidity. The PDC lines were cultured according to standard operating procedures established by the NCI PDMR (https://pdmr.cancer.gov/sops/default.htm). All PDCs were thawed and cultured in Matrigel-coated flasks prepared with a working solution of 1X Ham's F-12 nutrient mix, without supplementation (Invitrogen, Waltham, MA, cat. 11765054), 100 U/mL penicillin-streptomycin (Invitrogen, cat. 15140122), and 2.5% Matrigel (Corning Inc., Corning, NY, cat. 354248) for the first three passages. The 354836-022-R-J1-PDC, 475296-252-R-J1-PDC, and 997726-040-R-J2-PDC lines were cultured in 6A media, which includes advanced DMEM/F-12 (Thermo Fisher Scientific, cat. 12634028), 10 mM HEPES (Thermo Fisher Scientific, cat. 15630080), 1X GlutaMAX supplement (Thermo Fisher Scientific, cat. 35050061), 0.1 mg/mL primocin (InvivoGen, San Diego, CA, cat. ant-pm-2), 10% defined fetal bovine serum, heat inactivated (HyClone Laboratories Inc., Logan, UT, cat. SH30070.03HI), 50% L-WRN conditioned media (ATCC, cat. CRL-3276), 1.25 mM N-Acetyl-L-cysteine (Sigma-Aldrich, cat. A9165), 10 mM nicotinamide (Sigma-Aldrich, cat. N0636), 1X B-27 supplement (Thermo Fisher Scientific, cat. 17504044), 1X N-2 supplement (Thermo Fisher Scientific, cat. 17502048), and 10 microM Y-27632 dihydrochloride (Tocris Bioscience, Bristol, United Kingdom, cat. 1254). The 624824-186-R-J2-PDC line was cultured in 6C/Colon 1B media, which includes all 6A media components plus 50 ng/mL human EGF recombinant protein (Thermo Fisher Scientific, cat. PHG0311). […]
# [1] = second compound 0.0316 µM, first compound 0.00316 µM
# [2] = second compound 0.0316 µM, first compound 0.01 µM
# [3] = second compound 0.0316 µM, first compound 0.0316 µM
# [4] = second compound 0.0316 µM, first compound 0.1 µM
# [5] = second compound 0.1 µM, first compound 0.00316 µM
# [6] = second compound 0.1 µM, first compound 0.01 µM
# [7] = second compound 0.1 µM, first compound 0.0316 µM
# [8] = second compound 0.1 µM, first compound 0.1 µM
# [9] = second compound 0.316 µM, first compound 0.00316 µM
# [10] = second compound 0.316 µM, first compound 0.01 µM
# [11] = second compound 0.316 µM, first compound 0.0316 µM
# [12] = second compound 0.316 µM, first compound 0.1 µM
# [13] = second compound 1 µM, first compound 0.00316 µM
# [14] = second compound 1 µM, first compound 0.01 µM
# [15] = second compound 1 µM, first compound 0.0316 µM
# [16] = second compound 1 µM, first compound 0.1 µM
# [17] = second compound 3.16 µM, first compound 0.00316 µM
# [18] = second compound 3.16 µM, first compound 0.01 µM
# [19] = second compound 3.16 µM, first compound 0.0316 µM
# [20] = second compound 3.16 µM, first compound 0.1 µM
# [21] = second compound 10 µM, first compound 0.00316 µM
# [22] = second compound 10 µM, first compound 0.01 µM
# [23] = second compound 10 µM, first compound 0.0316 µM
# [24] = second compound 10 µM, first compound 0.1 µM
# 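Further: spheroids exposed to compounds for seven days.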
# 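Wherever viability, T/C is given: 100% = DMSO vehicle control viability.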
compound,measurement,setting,value
CC(C)n1nc(-c2ccc3oc(N)nc3c2)c2c(N)ncnc21 + Cc1nc(NC(=O)N2CCCC2C(N)=O)sc1-c1ccnc(C(C)(C)C(F)(F)F)c1,IC50,second compound 0.0316 µM,59 nM
same,IC50,second compound 0.1 µM,59.6 nM
same,IC50,second compound 0.316 µM,46.6 nM
same,IC50,second compound 1 µM,25.5 nM
same,IC50,second compound 3.16 µM,4.22 nM
same,IC50,second compound 10 µM,< 0.316 nM
same,"viability, T/C","second compound 0.0316 µM, first compound 0.000316 µM",91.6%
same,"viability, T/C","second compound 0.0316 µM, first compound 0.001 µM",96%
same,"viability, T/C",[1],107%
same,"viability, T/C",[2],94.6%
same,"viability, T/C",[3],67.5%
same,"viability, T/C",[4],35.3%
same,"viability, T/C","second compound 0.1 µM, first compound 0.000316 µM",100%
same,"viability, T/C","second compound 0.1 µM, first compound 0.001 µM",93.6%
same,"viability, T/C",[5],96.9%
same,"viability, T/C",[6],91.1%
same,"viability, T/C",[7],66.5%
same,"viability, T/C",[8],36.5%
same,"viability, T/C","second compound 0.316 µM, first compound 0.000316 µM",98.6%
same,"viability, T/C","second compound 0.316 µM, first compound 0.001 µM",91.6%
same,"viability, T/C",[9],97.8%
same,"viability, T/C",[10],76.8%
same,"viability, T/C",[11],56.6%
same,"viability, T/C",[12],39%
same,"viability, T/C","second compound 1 µM, first compound 0.000316 µM",92%
same,"viability, T/C","second compound 1 µM, first compound 0.001 µM",84.2%
same,"viability, T/C",[13],77.3%
same,"viability, T/C",[14],64.4%
same,"viability, T/C",[15],46%
same,"viability, T/C",[16],30%
same,"viability, T/C","second compound 3.16 µM, first compound 0.000316 µM",63.9%
same,"viability, T/C","second compound 3.16 µM, first compound 0.001 µM",55.1%
same,"viability, T/C",[17],54.2%
same,"viability, T/C",[18],43.5%
same,"viability, T/C",[19],34.5%
same,"viability, T/C",[20],21.4%
same,"viability, T/C","second compound 10 µM, first compound 0.000316 µM",35.2%
same,"viability, T/C","second compound 10 µM, first compound 0.001 µM",32.2%
same,"viability, T/C",[21],30.9%
same,"viability, T/C",[22],25.1%
same,"viability, T/C",[23],23.9%
same,"viability, T/C",[24],14.4%
CCN1CCN(Cc2ccc(Nc3ncc(F)c(-c4cc(F)c5nc(C)n(C(C)C)c5c4)n3)nc2)CC1 + Cc1nc(NC(=O)N2CCCC2C(N)=O)sc1-c1ccnc(C(C)(C)C(F)(F)F)c1,IC50,second compound 0.0316 µM,> 1000 nM
same,IC50,second compound 0.1 µM,> 1000 nM
same,IC50,second compound 0.316 µM,> 1000 nM
same,IC50,second compound 1 µM,> 1000 nM
same,IC50,second compound 3.16 µM,> 1000 nM
same,IC50,second compound 10 µM,< 3.16 nM
same,"viability, T/C",[1],106%
same,"viability, T/C",[2],104%
same,"viability, T/C",[3],109%
same,"viability, T/C",[4],108%
same,"viability, T/C","second compound 0.0316 µM, first compound 0.316 µM",131%
same,"viability, T/C","second compound 0.0316 µM, first compound 1 µM",129%
same,"viability, T/C",[5],100%
same,"viability, T/C",[6],104%
same,"viability, T/C",[7],111%
same,"viability, T/C",[8],104%
same,"viability, T/C","second compound 0.1 µM, first compound 0.316 µM",126%
same,"viability, T/C","second compound 0.1 µM, first compound 1 µM",131%
same,"viability, T/C",[9],96.9%
same,"viability, T/C",[10],102%
same,"viability, T/C",[11],112%
same,"viability, T/C",[12],112%
same,"viability, T/C","second compound 0.316 µM, first compound 0.316 µM",114%
same,"viability, T/C","second compound 0.316 µM, first compound 1 µM",114%
same,"viability, T/C",[13],93.2%
same,"viability, T/C",[14],102%
same,"viability, T/C",[15],94.2%
same,"viability, T/C",[16],110%
same,"viability, T/C","second compound 1 µM, first compound 0.316 µM",88.2%
same,"viability, T/C","second compound 1 µM, first compound 1 µM",80.9%
same,"viability, T/C",[17],63.6%
same,"viability, T/C",[18],62.6%
same,"viability, T/C",[19],56.2%
same,"viability, T/C",[20],59.9%
same,"viability, T/C","second compound 3.16 µM, first compound 0.316 µM",58.4%
same,"viability, T/C","second compound 3.16 µM, first compound 1 µM",69%
same,"viability, T/C",[21],37%
same,"viability, T/C",[22],37.4%
same,"viability, T/C",[23],34.3%
same,"viability, T/C",[24],35.8%
same,"viability, T/C","second compound 10 µM, first compound 0.316 µM",41.4%
same,"viability, T/C","second compound 10 µM, first compound 1 µM",45.8%
